The values below come from patent US20220144812A1, “QUINOLINE DERIVATIVES AND THEIR USE FOR THE TREATMENT OF CANCER” (Epizyme, Inc., priority 2019, published 2022).

For this test, the target named is T1, CREBBP (1084-1701) (Homo sapiens, UniProt Q92793).
T1 construct: measured in the following biochemical assay using CREBBP (1084-1701); purchased
T1 sequence (Q92793 1084-1701): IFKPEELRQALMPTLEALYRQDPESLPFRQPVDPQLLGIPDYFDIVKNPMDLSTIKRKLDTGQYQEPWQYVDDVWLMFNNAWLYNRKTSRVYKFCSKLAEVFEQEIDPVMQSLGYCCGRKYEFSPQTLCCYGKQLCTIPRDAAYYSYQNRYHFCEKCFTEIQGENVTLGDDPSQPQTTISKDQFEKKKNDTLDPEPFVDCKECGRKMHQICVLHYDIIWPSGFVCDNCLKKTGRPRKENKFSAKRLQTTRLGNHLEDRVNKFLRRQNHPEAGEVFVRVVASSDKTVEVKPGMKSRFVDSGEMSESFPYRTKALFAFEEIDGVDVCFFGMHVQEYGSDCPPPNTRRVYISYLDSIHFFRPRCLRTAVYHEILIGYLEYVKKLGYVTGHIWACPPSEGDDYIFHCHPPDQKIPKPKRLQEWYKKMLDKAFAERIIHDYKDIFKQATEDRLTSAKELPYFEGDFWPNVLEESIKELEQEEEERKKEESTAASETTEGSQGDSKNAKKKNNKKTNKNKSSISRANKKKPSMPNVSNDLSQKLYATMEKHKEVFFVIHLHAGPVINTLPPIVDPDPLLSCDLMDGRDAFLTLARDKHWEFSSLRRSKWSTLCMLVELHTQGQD
Briefly: Biochemical assay for CREBBP (1084-1701), SAMDI. The conditions noted are these: SAMDI, read-out: CREBBP Biochemistry IC50. The source says:
The following example describes materials and methods relating to a biochemical assay for CREBBP (1084-1701). IC50 values (micromolar (μM)) are summarized in Table 1, Table 2, and Table 3 under the column labeled: “CREBBP Biochemistry IC50 (micromolar).”
MATERIALS: Reagents 1M Tris pH 8.0, Tween 20 10%, DTT, bovine serum gelatin (BSG) 2%, Peptide #233 (biotin-H3 11-25, K14R, K23R), Acetyl-CoA, CREBBP (1084-1701), formic acid (100%), and sodium bicarbonate were commercially available.
METHODS: The effect of compounds was measured in the following biochemical assay using CREBBP (1084-1701). Enzyme mix 30 μL per well was added using a Multi-drop to wells of prepared Compound Stock plate. The enzyme was incubated in the Compound Stock plate for 30 minutes at room temperature. Substrate mix, 20 μL per well, was added to Compound Stock plate using a Multi-drop. The plate was covered and incubate 30 minutes at room temperature. The reaction was stopped with addition of 5 μL per well of 5% formic acid using a Multi-drop. The plate was Incubated for 30 minutes at room temperature. The reaction mixture was neutralized with addition of 5 μL per well of 10% sodium bicarbonate using a Multi-drop. The plate was Incubated for 35 minutes at room temperature. The reaction mixture was Transferred 2.5 μL per well to a SAMDI biochip. The plate was Incubated for 60 minutes at room temperature. The samples were washed, dried, and matrix applied to SAMDI biochip. The SAMDI biochip was then read on the mass spectrometer.
Consider `CCn1nnc(CN(C)C(=O)c2cc(-c3ccccc3Cl)nc3ccc(Cl)cc23)c1C` [Compound 291], for which the IC50 worked out at 89 µM. To `CCn1nnc(CN(C)C(=O)c2nc(-c3ccccc3Cl)nc3ccc(Cl)cc23)c1C` [Compound 292] belongs 50 µM; to `CCc1n[nH]c(CN(C)C(=O)c2cc(-c3ccccc3Cl)nc3ccc(Cl)cc23)c1C` [Compound 298], 31 µM; to `Cc1c(CN(C)C(=O)c2cc(-c3cccc(Cl)c3)nc3ccccc23)cnn1C(C)C` [Compound 304], 43 µM. To `CCn1ncc(CN(C)C(=O)c2nc(-c3cccc(Cl)c3)nc3ccc(F)cc23)c1C` [Compound 309] belongs 1.8 µM. Then `CCn1ncc(CN(C)C(=O)c2nc(-c3ccccc3Cl)nc3ccc(C#N)cc23)c1C` [Compound 310], with 48 µM; and `CCn1ncc(CN(C)C(=O)c2cc(-c3cccc(Cl)c3)nc3ccc(N)cc23)c1C` [Compound 311], with 18 µM. For the compound `CCOc1ccc2nc(-c3cccc(Cl)c3)cc(C(=O)N(C)Cc3cnn(CC)c3C)c2c1` [Compound 319], the IC50 is 120 µM. Then `CCn1ncc(CN(C)C(=O)c2cc(-c3ccc[nH]3)nc3ccc(Cl)cc23)c1C` [Compound 320], with 51 µM; and `CCn1ncc(CN(C)C(=O)c2cc(-c3ccccc3Cl)nc3cc(OC)ccc23)c1C` [Compound 322], with 134 µM; and `CCn1ncc(CN(C)C(=O)c2cc(-c3cccnc3)nc3ccc(Cl)cc23)c1C` [Compound 325], with 55 µM. To `CCn1ncc(CN(C)C(=O)c2cc(-c3ccccn3)nc3ccccc23)c1C` [Compound 326] belongs 40 µM; to `CCn1ncc(CN(C)C(=O)c2nc(-c3ccccn3)nc3cc(Cl)ccc23)c1C` [Compound 327], 152 µM. Then `CCc1ccc2nc(-c3cccc(Cl)c3)cc(C(=O)N(C)Cc3cnn(CC)c3C)c2c1` [Compound 328], with 0.29 µM; and `CCn1ncc(CN(C)C(=O)c2cc(-c3cccc(C#N)c3)nc3ccc(Cl)cc23)c1C` [Compound 332], with 27 µM. Consider `CCn1ncc(CN(C)C(=O)c2nc(-c3cc(Cl)ccn3)nc3ccc(Cl)cc23)c1C` [Compound 333], for which the IC50 is 3.9 µM. For the compound `CCn1ncc(CN(C)C(=O)c2nc(-c3cnn(C)c3)nc3ccc(Cl)cc23)c1C` [Compound 339], the IC50 was found to be 29 µM. `CCn1ncc(CN(C)C(=O)c2cc(-c3ccccc3Cl)nc3c(C)cccc23)c1C` [Compound 340]: the IC50 worked out at 40 µM.

Regarding `CCn1ncc(CN(C)C(=O)c2cc(-c3cncc(Cl)c3)nc3ccc(Cl)cc23)c1C` [Compound 341], the IC50 is 12 µM. As to `CCn1ncc(CN(C)C(=O)c2cc(-c3ccccc3)nc3ccccc23)c1C` [Compound 343], the IC50 was found to be 176 µM. Turning to `CCn1ncc(CN(C)C(=O)c2nc(-c3ccccc3Cl)nc3cc(Cl)ccc23)c1C` [Compound 344], the IC50 worked out at 45 µM. To `CCn1ncc(CN(C)C(=O)c2cc(-c3ncccc3OC)nc3ccc(Cl)cc23)c1C` [Compound 345] belongs 72 µM; to `CCn1ncc(CN(C)C(=O)c2nc(-c3ncccc3OC)nc3ccc(Cl)cc23)c1C` [Compound 348], 21 µM. To `CCn1ncc(CN(C)C(=O)c2cc(-c3ccccc3OC)nc3ccccc23)c1C` [Compound 351] belongs 32 µM; to `CCn1ncc(CN(C)C(=O)c2cc(-c3cccc(Cl)c3)nc3ccccc23)c1C` [Compound 352], 41 µM; to `CCn1ncc(CN(C)C(=O)c2cc(-c3cccc(C)c3)nc3ccccc23)c1C` [Compound 353], 84 µM.

On to `CCn1ncc(CN(C)C(=O)c2cc(-c3cccc(Cl)c3)nc3ccccc23)c1C` [Compound 354], for which the IC50 was 38 µM. To `CCn1ncc(CN(C)C(=O)c2nc(-c3ccc(OCCCN(C)C(=O)OC(C)(C)C)c(OC)c3)nc3ccc(Cl)cc23)c1C` [Compound 355] belongs 3.8 µM; to `CCn1ncc(CN(C)C(=O)c2cc(-c3cccnc3)nc3ccc(Cl)cc23)c1C` [Compound 364], 34 µM; to `CCn1ncc(CN(C)C(=O)c2cc(-c3ccccc3Cl)nc3c(F)cccc23)c1C` [Compound 365], 14 µM. For `CN(Cc1cnn2c1CCC2)C(=O)c1cc(-c2cccc(Cl)c2)nc2ccc(Cl)cc12` [Compound 367], the IC50 was 72 µM. For the compound `CCn1ncc(CN(C)C(=O)c2cc(-c3cccc(Cl)c3)nc3ccc(F)cc23)c1C` [Compound 368], the IC50 was 15 µM. As to `CCn1ncc(CN(C)C(=O)c2nc(-c3ccccc3Cl)nc3ccc(C)cc23)c1C` [Compound 370], the IC50 came to 0.67 µM.

Take `CCn1ncc(CN(C)C(=O)c2cc(-c3ncccn3)nc3ccc(Cl)cc23)c1C` [Compound 371]: the IC50 amounted to 25 µM.

In the case of `CCc1ccc2c(C(=O)N(C)Cc3cnn(CC)c3C)cc(-c3ccccc3Cl)nc2c1` [Compound 375], the IC50 stood at 102 µM. Then `CCn1ncc(CN(C)C(=O)c2cc(-c3ccccc3Cl)nc3ccccc23)c1C` [Compound 376], with 32 µM; and `CCn1ncc(CN(C)C(=O)c2cc(-c3ccccc3F)nc3ccccc23)c1C` [Compound 378], with 48 µM.
